Measured values taken from the supplement of paper PMC3974653.
Structures can show the parent of a compound that is named as a salt.

Assays:
[1] = system: MTT (mouse pheochromocytoma); assay: IC50 of cell viability (ATP content); AC50 where efficacy is positive; conditions: (24 or 48 h)
[2] = system: MTT (mouse pheochromocytoma); assay: efficacy (maximal response) relative to doxorubicin = -100% and DMSO = 0%; higher = less inhibition of viability; conditions: (24 or 48 h)

| IC50 of cell viability [1] | SMILES | efficacy [2] |
| --- | --- | --- |
| 11.9 µM | COc1ccc(CC(N)C(=O)NC2C(CO)OC(n3cnc4c(N(C)C)ncnc43)C2O)cc1.Cl.Cl (stereo unspecified) [PUROMYCIN HYDROCHLORIDE] | -63.1% |
| 3.35 µM | Cc1cc(O)c2c3c4c(cc(O)c13)C(C)(C)C(=O)c1c(O)cc(O)c(c1-4)C2=O [HELIOMYCINUM] | -46.4% |
| 0.531 µM | CCCOc1ccc2[nH]c(NC(=O)OC)nc2c1 [OXIBENDAZOLE] | -39% |
| 26.6 µM | COc1cc2c(Nc3ccc(Br)cc3F)ncnc2cc1OCC1CCN(C)CC1 [VANDETANIB] | -102% |
| 21.1 µM | Sc1ncnc2[nH]cnc12 [6-Mercaptopurine monohydrate] | -78.1% |
| 4.53 µM | CC/1=C/C(=O)N(O)/C(=C1)C2CCCCC2 [Ciclopirox ethanolamine] | -84.9% |
| 11.9 µM | CC(C)(Cc1c[nH]c2ccccc12)NCC(O)COc1ccccc1C#N (stereo unspecified) [BUCINDOLOLUM] | -41.7% |
| 11.9 µM | CCOc1ccc(/N=N/c2ccc(N)cc2N)cc1 [Ethoxazene hydrochloride] | -57.4% |
| 0.531 µM | CCCCCCCC[N+](C)(C)CCCCCCCC [Dioctyldimethylammonium chloride] | -48.6% |
| 2.66 µM | CC(=O)C1(O)Cc2c(O)c3c(c(O)c2C(OC2CC(N)C(O)C(C)O2)C1)C(=O)c1c(O)cccc1C3=O (stereo unspecified) [Carminomycin] | -48.5% |
| 5.08 µM | NNCCc1ccccc1 [Phenelzine sulfate] | -52.6% |
| 2.66 µM | CC(=O)Nc1ccc(NC(=S)NC(=O)c2ccc(C(C)(C)C)cc2)cc1 | -56% |
| 21.1 µM | NC/1=N/C(S)C/2\N=C/NC2=N1 (stereo unspecified) [6-Thioguanine (6-TG)] | -78.6% |
| 16.8 µM | CCCCCCCCCCCCCCCCOCCOCCOCCOCCOCCOCCOCCOCCOCCOCCOCCOCCOCCOCCOCCOCCOCCOCCOCCOCCO [CETOMACROGOL EMULSIFYING WAX] | -80.5% |
| 10.6 µM | O=C(Nc1ccc([N+](=O)[O-])cc1)Nc1ccc([N+](=O)[O-])cc1 [Nicarbazin] | -44.1% |
| 4.22 µM | C=CCNC1=C2C[C@@H](C)C[C@H](OC)[C@H](O)[C@@H](C)/C=C(\C)[C@H](OC(N)=O)[C@@H](OC)C=C/C=C(\C)C(=O)NC(=CC1=O)C2=O [17-Allylamino-geldanamycin] | -80.6% |
| 0.237 µM | COC(=O)C[C@](O)(CCCC(C)(C)O)C(=O)O[C@H]\1[C@H]2C3=CC4=C(OCO4)C=C3CCN5CCC[C@]25\C=C1OC [Homoharringtonine] | -73.7% |

| IC50 of cell viability [1] | SMILES | efficacy [2] |
| --- | --- | --- |
| 1.88 µM | CN1CC[C@@H]([C@@H](O)C1)C2=C(O)C=C(O)C3=C2O\C(=C/C3=O)C4=C(Cl)C=CC=C4 [Flavopiridol hydrochloride hydrate] | -71.3% |
| 8.41 µM | C[n+]1cc2c3c(ccc2c2ccc4cc5c(cc4c21)OCO5)OCO3 [Sanguinarine] | -87.7% |
| 21.1 µM | COc1cc(-c2ccc(-[n+]3nc(-c4ccccc4)nn3-c3ccc([N+](=O)[O-])cc3)c(OC)c2)ccc1-[n+]1nc(-c2ccccc2)nn1-c1ccc([N+](=O)[O-])cc1 [NITROBLUE TETRAZOLIUM CHLORIDE] | -107% |
| 18.8 µM | C#C[C@]1(O)CC[C@H]2[C@@H]3CCc4cc(OC5CCCC5)ccc4[C@H]3CC[C@@]21C [Quinestrol] | -61.1% |
| 0.841 µM | CC(C)COC(=O)OCN1C(=O)CN(CCN2CC(=O)N(COC(=O)OCC(C)C)C(=O)C2)CC1=O [Sobuzoxane] | -56.1% |
| 15 µM | CN[C@H]1CC[C@@H](c2ccc(Cl)c(Cl)c2)c2ccccc21 [Sertraline hydrochloride (Zoloft)] | -39.9% |
| 16.8 µM | Cc1c(C(=O)O)c(O)cc2c1C(=O)c1c(O)c([C@H]3O[C@H](CO)[C@@H](O)[C@H](O)[C@H]3O)c(O)c(O)c1C2=O [COCHINEAL] | -45.4% |
| 0.531 µM | CCCCCCCCCCCCCC[n+]1ccc(C)cc1 [MYRISTYL-GAMMA-PICOLINIUM CHLORIDE] | -39.7% |
| 21.1 µM | Cc1ccc2c(c1)c1c3n2CCNC3CCC1 (stereo unspecified) [Pirlindole mesylate] | -45.7% |
| 2.66 µM | CC[P](CC)(CC)=[Au][S][C@@H]1OC(COC(C)=O)[C@@H](OC(C)=O)[C@H](OC(C)=O)C1OC(C)=O (stereo partly specified) [Auranofin] | -86.7% |
| 0.718 µM | CCCSc1ccc2[nH]c(NC(=O)OC)nc2c1 [Albendazole] | -57.9% |
| 1.5 µM | [O-][n+]1ccccc1SSc1cccc[n+]1[O-] [Dipyrithione] | -81% |
| 0.596 µM | CC(C)C[C@@H](NC(=O)[C@@H](Cc1ccccc1)NC(=O)c1cnccn1)B(O)O [BORTEZOMIB] | -74.6% |
| 11.9 µM | COCC(=O)O[C@]1(CCN(C)CCCc2nc3ccccc3[nH]2)CCc2cc(F)ccc2[C@@H]1C(C)C.Cl.Cl [Mibefradil dihydrochloride] | -97.9% |
| 0.0376 µM | CC(=O)O[C@H]1C(=O)[C@@]2(C)[C@H]([C@H](OC(=O)c3ccccc3)[C@]3(O)CC(OC(=O)C(O)C(NC(=O)c4ccccc4)c4ccccc4)C(C)=C1C3(C)C)[C@]1(OC(C)=O)CO[C@@H]1C[C@@H]2O (stereo partly specified) [Paclitaxel] | -50.9% |
| 2.99 µM | CC(=O)[C@]1(O)Cc2c(O)c3c(c(O)c2[C@@H](O[C@H]2C[C@H](N)[C@H](O)[C@H](C)O2)C1)C(=O)c1c(O)cccc1C3=O [CARUBICINUM] | -59.2% |

| SMILES | IC50 of cell viability [1] | efficacy [2] |
| --- | --- | --- |
| C[CH2][Hg][S]c1ccccc1C(=O)[O-].[Na+] [THIMEROSAL] | 2.99 µM | -86.9% |
| [Na+].CCC(C1CCC(C)C(O1)C(C)C(O)C(C)C(=O)C(CC)C2OC\3(O[C@]4(CC[C@@](C)(O4)C5CC[C@@](O)(CC)C(C)O5)C(O)\C=C3)C(C)CC2C)C([O-])=O (stereo partly specified) [SALINOMYCIN, SODIUM] | 3.35 µM | -47.9% |
| C[C@@H]1CC[C@H]2[C@@H](C)C(=O)O[C@@H]3O[C@]4(C)CC[C@@H]1[C@@]32OO4 [Artemisinin] | 10.6 µM | -62% |
| C=C(C)[C@H]1Cc2c(ccc3c2O[C@@H]2COc4cc(OC)c(OC)cc4[C@@H]2C3=O)O1 [Rotenone] | 2.66 µM | -124% |
| [Hg+2] [Mercuric chloride] | 2.37 µM | -90.3% |
